Seven cell lines from the supplement of paper PMC10307832 can be followed below.

What all share (assay): relative viability (nuclei count vs DMSO), 5 days (fraction); higher = more cells survive
Compound in one assay: COc1cc([C@@H]2c3cc4c(cc3[C@@H](O[C@@H]3O[C@@H]5CO[C@@H](C)O[C@H]5[C@H](O)[C@H]3O)[C@H]3COC(=O)[C@H]23)OCO4)cc(OC)c1O [Etoposide]
In a few lines:
(§1)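 In 1536-well plates, lung cancer cell lines rested overnight at 37 °C before five library-drug doses (not always all listed), √10 apart, were pinned onto vehicle-anchored plates. Nuclei were counted with MetaXpress from 4× Hoechst images taken after 5 days without medium change. Viability compares treated-well with vehicle-well nuclei as a median over plates, and plates needed control CV below 25% plus at least one doubling to pass.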

Compound in another assay: CC1=C(N=C(N=C1N)[C@H](CC(=O)N)NC[C@@H](C(=O)N)N)C(=O)N[C@@H]([C@H](C2=CN=CN2)OC3C(C(C(C(O3)CO)O)O)OC4C(C(C(C(O4)CO)O)OC(=O)N)O)C(=O)N[C@H](C)[C@H]([C@H](C)C(=O)N[C@@H]([C@@H](C)O)C(=O)NCCC5=NC(=CS5)C6=NC(=CS6)C(=O)NCCC[S+](C)C)O [Bleomycin]
The conditions noted are these: main component drawn. In a few lines:
as §1

Compound in the assay “Etoposide + Pemetrexed”: COc1cc([C@@H]2c3cc4c(cc3[C@@H](O[C@@H]3O[C@@H]5CO[C@@H](C)O[C@H]5[C@H](O)[C@H]3O)[C@H]3COC(=O)[C@H]23)OCO4)cc(OC)c1O [Etoposide] + Nc1nc2[nH]cc(CCc3ccc(C(=O)N[C@@H](CCC(=O)O)C(=O)O)cc3)c2c(=O)[nH]1 [Pemetrexed] (partner 0.2 µM)
In a few lines:
(§2)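 Each reported value is a median over duplicate plates. It expresses relative viability: treated-well nuclei count divided by vehicle-well nuclei count. Lung cancer cell lines in 1536-well plates were dosed by pin tool a day after seeding, alone with one drug or with a fixed anchor-drug dose plus five library-drug doses (not always all listed) in √10 steps, and nuclei were counted after 5 days.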

Compound in the assay “Bleomycin + Alpelisib”: CC1=C(N=C(N=C1N)[C@H](CC(=O)N)NC[C@@H](C(=O)N)N)C(=O)N[C@@H]([C@H](C2=CN=CN2)OC3C(C(C(C(O3)CO)O)O)OC4C(C(C(C(O4)CO)O)OC(=O)N)O)C(=O)N[C@H](C)[C@H]([C@H](C)C(=O)N[C@@H]([C@@H](C)O)C(=O)NCCC5=NC(=CS5)C6=NC(=CS6)C(=O)NCCC[S+](C)C)O [Bleomycin] + Cc1nc(NC(=O)N2CCC[C@H]2C(N)=O)sc1-c1ccnc(C(C)(C)C(F)(F)F)c1 [Alpelisib] (partner 2 µM)
The conditions noted are these: main component drawn. In a few lines:
as §2

EPLC-272H: the relative viability came out at 1.05 in the assay with Etoposide (0.01 µM); 1.09 with Etoposide (0.03162 µM); 0.658 with Etoposide (0.1 µM); 0.815 in the assay with Etoposide (0.3162 µM); 0.513 with Etoposide (1 µM); 0.811 in the assay with Bleomycin (0.01 µM). For the same cell line, the relative viability is 0.882 with Bleomycin (0.03162 µM); 0.434 in the assay with Bleomycin (0.1 µM); 0.132 with Bleomycin (0.3162 µM); 0.151 with Bleomycin (1 µM); 0.344 in the assay with Etoposide + Pemetrexed (first compound 0.01 µM); 0.327 with Etoposide + Pemetrexed (first compound 0.03162 µM). Further, the relative viability with Etoposide + Pemetrexed (first compound 0.1 µM) came out at 0.318; in the assay with Etoposide + Pemetrexed (first compound 0.3162 µM), 0.315; with Etoposide + Pemetrexed (first compound 1 µM), 0.308; with Bleomycin + Alpelisib (first compound 0.01 µM), 0.889; with Bleomycin + Alpelisib (first compound 0.03162 µM) it was 0.847; in the assay with Bleomycin + Alpelisib (first compound 0.1 µM), 0.797. The relative viability worked out at 0.308 with Bleomycin + Alpelisib (first compound 0.3162 µM) and 0.176 with Bleomycin + Alpelisib (first compound 1 µM).
Consider RERF-LC-KJ, for which the relative viability came to 0.846 with Etoposide (0.01 µM); 1.06 in the assay with Etoposide (0.03162 µM); 0.861 with Etoposide (0.1 µM); 0.873 with Etoposide (0.3162 µM); 0.653 with Etoposide (1 µM); 0.694 with Bleomycin (0.01 µM). Also, the relative viability turned out to be 0.675 with Bleomycin (0.03162 µM); 0.591 with Bleomycin (0.1 µM); 0.308 in the assay with Bleomycin (0.3162 µM); 0.271 with Bleomycin (1 µM); 0.454 with Etoposide + Pemetrexed (first compound 0.01 µM); 0.507 in the assay with Etoposide + Pemetrexed (first compound 0.03162 µM). Moreover, the relative viability with Etoposide + Pemetrexed (first compound 0.1 µM) was found to be 0.48; with Etoposide + Pemetrexed (first compound 0.3162 µM) it was 0.434; with Etoposide + Pemetrexed (first compound 1 µM) it was 0.445; in the assay with Bleomycin + Alpelisib (first compound 0.01 µM), 0.58; with Bleomycin + Alpelisib (first compound 0.03162 µM) it was 0.589; with Bleomycin + Alpelisib (first compound 0.1 µM), 0.53. Besides, the relative viability in the assay with Bleomycin + Alpelisib (first compound 0.3162 µM) came out at 0.253; with Bleomycin + Alpelisib (first compound 1 µM), 0.266.
Take NCI-H661: the relative viability in the assay with Etoposide (0.01 µM) was found to be 1.03; with Etoposide (0.03162 µM), 1.03; with Etoposide (0.1 µM), 0.873; with Etoposide (0.3162 µM) it was 0.827; in the assay with Etoposide (1 µM) it was 0.565; with Bleomycin (0.01 µM), 0.907. In addition, the relative viability was 0.875 with Bleomycin (0.03162 µM); 0.767 with Bleomycin (0.1 µM); 0.475 with Bleomycin (0.3162 µM); 0.394 in the assay with Bleomycin (1 µM); 0.863 with Etoposide + Pemetrexed (first compound 0.01 µM); 0.984 in the assay with Etoposide + Pemetrexed (first compound 0.03162 µM). The relative viability in the assay with Etoposide + Pemetrexed (first compound 0.1 µM) is 0.849; with Etoposide + Pemetrexed (first compound 0.3162 µM) it was 0.858; with Etoposide + Pemetrexed (first compound 1 µM) it was 0.625; in the assay with Bleomycin + Alpelisib (first compound 0.01 µM), 0.439; with Bleomycin + Alpelisib (first compound 0.03162 µM), 0.66; with Bleomycin + Alpelisib (first compound 0.1 µM), 0.411. The relative viability with Bleomycin + Alpelisib (first compound 0.3162 µM) came to 0.247; with Bleomycin + Alpelisib (first compound 1 µM), 0.196.
For the cell line PC-14, the relative viability was 0.996 in the assay with Etoposide (0.01 µM); 1.08 with Etoposide (0.03162 µM); 0.933 with Etoposide (0.1 µM); 0.782 with Etoposide (0.3162 µM); 0.441 with Etoposide (1 µM); 0.656 with Bleomycin (0.01 µM). Besides, the relative viability with Bleomycin (0.03162 µM) is 0.612; with Bleomycin (0.1 µM), 0.286; with Bleomycin (0.3162 µM) it was 0.097; with Bleomycin (1 µM), 0.057; with Etoposide + Pemetrexed (first compound 0.01 µM) it was 0.13; in the assay with Etoposide + Pemetrexed (first compound 0.03162 µM) it was 0.141. The relative viability with Etoposide + Pemetrexed (first compound 0.1 µM) came out at 0.168; with Etoposide + Pemetrexed (first compound 0.3162 µM) it was 0.121; in the assay with Etoposide + Pemetrexed (first compound 1 µM), 0.106; with Bleomycin + Alpelisib (first compound 0.01 µM), 0.626; with Bleomycin + Alpelisib (first compound 0.03162 µM), 0.534; with Bleomycin + Alpelisib (first compound 0.1 µM), 0.303. Besides, the results for the relative viability with Bleomycin + Alpelisib (first compound 0.3162 µM) and with Bleomycin + Alpelisib (first compound 1 µM) were 0.0745 and 0.067, respectively.
As for COR-L 105, the relative viability with Etoposide (0.01 µM) is 0.979; in the assay with Etoposide (0.03162 µM), 0.98; with Etoposide (0.1 µM), 0.638; in the assay with Etoposide (0.3162 µM), 0.823; with Etoposide (1 µM) it was 0.662; with Bleomycin (0.01 µM) it was 0.943. The relative viability came to 0.87 with Bleomycin (0.03162 µM); 0.759 in the assay with Bleomycin (0.1 µM); 0.556 with Bleomycin (0.3162 µM); 0.404 with Bleomycin (1 µM); 1.03 with Etoposide + Pemetrexed (first compound 0.01 µM); 1.02 in the assay with Etoposide + Pemetrexed (first compound 0.03162 µM). The relative viability in the assay with Etoposide + Pemetrexed (first compound 0.1 µM) worked out at 1.27; with Etoposide + Pemetrexed (first compound 0.3162 µM), 0.836; with Etoposide + Pemetrexed (first compound 1 µM), 0.844; in the assay with Bleomycin + Alpelisib (first compound 0.01 µM), 0.95; with Bleomycin + Alpelisib (first compound 0.03162 µM), 0.949; in the assay with Bleomycin + Alpelisib (first compound 0.1 µM), 0.794. In addition, the relative viability came out at 0.413 in the assay with Bleomycin + Alpelisib (first compound 0.3162 µM) and 0.317 in the assay with Bleomycin + Alpelisib (first compound 1 µM).
As to NCI-H3122, the relative viability in the assay with Etoposide (0.01 µM) came out at 1; with Etoposide (0.03162 µM), 0.995; in the assay with Etoposide (0.1 µM), 0.983; with Etoposide (0.3162 µM), 0.854; with Etoposide (1 µM), 0.333; with Bleomycin (0.01 µM) it was 1. For the same cell line, the relative viability with Bleomycin (0.03162 µM) amounted to 0.993; with Bleomycin (0.1 µM) it was 0.928; with Bleomycin (0.3162 µM) it was 0.528; with Bleomycin (1 µM) it was 0.358; with Etoposide + Pemetrexed (first compound 0.01 µM) it was 0.21; with Etoposide + Pemetrexed (first compound 0.03162 µM) it was 0.207. For the same cell line, the relative viability with Etoposide + Pemetrexed (first compound 0.1 µM) came to 0.206; with Etoposide + Pemetrexed (first compound 0.3162 µM), 0.19; with Etoposide + Pemetrexed (first compound 1 µM) it was 0.179; in the assay with Bleomycin + Alpelisib (first compound 0.01 µM), 0.737; with Bleomycin + Alpelisib (first compound 0.03162 µM) it was 0.709; in the assay with Bleomycin + Alpelisib (first compound 0.1 µM), 0.778. In addition, the figures for the relative viability with Bleomycin + Alpelisib (first compound 0.3162 µM) and in the assay with Bleomycin + Alpelisib (first compound 1 µM) were 0.378 and 0.349, respectively.
Regarding NCI-H1395, the relative viability with Etoposide (0.01 µM) stood at 0.872; in the assay with Etoposide (0.03162 µM) it was 0.961; with Etoposide (0.1 µM), 0.804; in the assay with Etoposide (0.3162 µM), 0.781; with Etoposide (1 µM), 0.658; in the assay with Bleomycin (0.01 µM), 0.753. In addition, the relative viability was found to be 0.833 with Bleomycin (0.03162 µM); 0.603 with Bleomycin (0.1 µM); 0.476 in the assay with Bleomycin (0.3162 µM); 0.398 with Bleomycin (1 µM); 0.765 in the assay with Etoposide + Pemetrexed (first compound 0.01 µM); 0.894 with Etoposide + Pemetrexed (first compound 0.03162 µM). Besides, the relative viability with Etoposide + Pemetrexed (first compound 0.1 µM) came out at 0.758; in the assay with Etoposide + Pemetrexed (first compound 0.3162 µM), 0.823; with Etoposide + Pemetrexed (first compound 1 µM), 0.599; in the assay with Bleomycin + Alpelisib (first compound 0.01 µM), 0.817; in the assay with Bleomycin + Alpelisib (first compound 0.03162 µM), 0.812; with Bleomycin + Alpelisib (first compound 0.1 µM), 0.669. The relative viability with Bleomycin + Alpelisib (first compound 0.3162 µM) came out at 0.9; with Bleomycin + Alpelisib (first compound 1 µM), 0.382.
